Measurements reported in US9307765B2, “Selective weed control using D-napropamide” (UPL Limited, priority 2013, dated 2016).

Columns and labels:
Format in all cases: in vivo
[1] = test system: Papaver rhoeas; experiment: Field trial on strawberries, pre-emergence, visual % control
Procedure: (§1) Field trials were conducted on various moncotyledonous weeds and dicotyledonous weeds and the effect of D-isomer of Napropamide was studied to understand the selective and effective control of dicotyledonous weeds over monocotyledonous weeds. The effect of D-isomer of Napropamide in comparison to racemic napropramide and untreated was studied, which is concluded hereinbelow:
(§2) Several small plot replicated trials were carried out to evaluate and/or compare the efficacy of D-Napropamide against a range of indicated annual broadleaved and grass weed species in the indicated crops. No problems were encountered during mixing or application of any of the product formulations or tank mixtures under test.
(§3) In each of the reported data, the homogeneity of variance was tested by Bartlett's test. Wherever this test indicated no homogeneity of variance, the transformed values were used for analysis of variance. Assessment data was then analyzed using a two-way analysis of variance (ANOVA) on untransformed and transformed data. The probability of no significant differences occurring between treatment means was calculated as the F probability value (p(F)). A mean comparison test was only performed and reported when the treatment of F that was calculated during analysis of variance was significant at the observed significance level specified for the mean comparison test. Where the data was transformed, treatment means in the reports were presented in their detransformed state, with the appropriate letter test and mean descriptions (LSD and standard deviation) derived from the transformed ANOVA.
(§4) Trial was carried out on strawberries to evaluate the efficacy and selectivity of D-Napropamide and equivalent rate of Devrinol (Napropramide) applied pre-emergence. […]

[2] = test system: Senecio vulgaris; experiment: as above
Procedure: as §1, §2, §3, §4

[3] = test system: Aperaspica-venti; experiment: Field trial in winter oilseed rape, pre-emergence, % control
Procedure: as §1, §2, §3
(§5) Trials were conducted to evaluate the selectivity and efficacy of D-isomer of Napropamide when applied pre-emergence to oilseed rape crop. The % control of weed was assessed at regular intervals.

[4] = test system: Veronica persica; experiment: as above
Procedure: as §1, §2, §3, §5

[5] = test system: Ranunculus repens; experiment: Field trial on strawberries, pre-emergence, visual % control
Procedure: as §1, §2, §3
Trial was carried out on strawberries to evaluate the efficacy and selectivity of D-Napropamide and equivalent rate of Devrinol (Napropramide) applied pre-emergence. […] The percentage control of D-isomer of Napropamide and Devrinol was assessed in comparison to the untreated after 224 days after application.

[6] = test system: Matricaria sp.; experiment: Field trial in winter oilseed rape, pre-emergence, % control and ground cover
Procedure: as §1, §2, §3, §5

[7] = 3.0 L/Ha of 450 g/L formulation
[8] = 4.2 L/Ha of 450 g/L formulation
[9] = 8.5 L/Ha of 450 g/L formulation

`CCN(CC)C(=O)[C@@H](C)Oc1cccc2ccccc12` [D-Napropamide, D-(−)-N,N-diethyl-2-(α-naphthoxy)propionamide] was tested, and the “Percentage Control at 70 DAA” value [1, 7] was 71.7%, the “Percentage Control at 70 DAA” value [1, 8] was 95.0% and the “Percentage Control at 70 DAA” value [1, 9] was 97.5%. For the same compound, the “Conclusion: efficacy in control vis-à-vis Napropamide at an equivalent dosage” value (shortened to “Conclusion: efficacy”) ([1]; Papaver rhoeas) was “surprising efficacy”, the “Percentage Control at 70 DAA” value [2, 7] was 75.0% and the “Percentage Control at 70 DAA” value [2, 8] was 50.0%. The “Percentage Control at 70 DAA” value [2, 9] was 75.0%, the “Conclusion: efficacy” value ([2]; Senecio vulgaris) was “surprising efficacy” and the “Percentage Control at 63 DAA” value ([3]; 450 g/L @ 1.4 L/Ha) was 35.00%. The “Percentage Control at 63 DAA” value ([3]; 450 g/L @ 1.6 L/Ha) was 58.75%, the “Percentage Control at 63 DAA” value ([3]; 450 g/L @ 1.6 L/Ha, listed as D Napropamide) was 52.50% and the “Conclusion: efficacy” value ([3]; Aperaspica-venti, monocot) was “poor efficacy”. The “Percentage Control at 63 DAA” value ([4]; 450 g/L @ 1.4 L/Ha) was 100.00%, the “Percentage Control at 63 DAA” value ([4]; 450 g/L @ 1.6 L/Ha) was 100.00% and the “Conclusion: efficacy” value ([4]; Veronica persica, dicot) was “superior efficacy”. For the same compound, the “Percentage Control at 224 DAA” value [5, 7] was 66.7%, the “Percentage Control at 224 DAA” value [5, 8] was 100% and the “Percentage Control at 224 DAA” value [5, 9] was 100%. The “Conclusion: efficacy” value ([5]; Ranunculus repens) was “surprising efficacy”, the “Percentage ground cover %, value in brackets (untreated 0.0%)” value ([6]; 450 g/L @ 2.0 L/Ha) was “(99.3%)” and the “Percentage Control at 49 DAA” value ([6]; 450 g/L @ 2.0 L/Ha, oilseed rape) was 97.00%. For the same compound, the “Percentage ground cover %” value ([6]; 450 g/L @ 2.0 L/Ha, untreated 4.50) was 0.30% and the “Conclusion: efficacy” value ([6]; Matricaria sp., dicot, oilseed rape) was “superior efficacy”.
